Measured values reported in patent publication EP0595743B1, “Bihaptinic derivatives for binding technetium or rhenium, process for their preparation, application for diagnosis and therapy, kits and immunological reactants comprising them” (priority 1992, dated 2001).

Key:
cellules LS-174 T = conditions: LS-174 T cells 7.10^6/ml, 4 °C, 2 h; nanomolar concentrations of bispecific antibody (anti-CEA/anti-histamine-succinyl-glycine); maximum binding
Experimental: Des cellules LS-174 T (7.10^6 cellules/ml), cellules d'origine humaine connues pour exprimer à leur surface l'antigène carcino-embryonnaire, sont incubées à 4° C pendant 2 heures dans des tubes contenant un tampon phosphate isotonique à pH 7,3. Dans ces tubes, ont été ajoutés à des concentrations variables le conjugué bispécifique approprié (anti-antigène carcino-embryonnaire/anti-histamine-succinyl-glycine), marqué à l'iode-125 suivant une des techniques bien connues et la sonde, marquée au ^99mTc comme décrit ci-dessus. Ces concentrations sont calculées pour couvrir un domaine s'étendant de concentrations très inférieures à très supérieures à la concentration de l'antigène cible dans le mélange. A la fin de cette incubation, 100 µl de mélange sont transférés en triplicates dans des tubes contenant un mélange de phthalates. Les tubes sont centrifugés 30 secondes à environ 5000 g. Les cellules, plus denses que les phthalates, forment un culot alors que le surnageant reste à la surface. On peut alors compter séparément les activités (^125I et ^99mTc) liées aux cellules et les activités non liées et en calculer les rapports.

[1] = tested on: tumeurs colorectales humaines (LS174); conditions: 2 µg conjugate F6-679.1MC7 24 h earlier, 6,7 µCi (1 pmol)
Experimental: (§1) La liaison du dérivé de l'exemple 3 aux cellules hépatiques s'effectue par l'intermédiaire de sa liaison au site Ac de l'anticorps 679.1MC7, lui même lié par son fragment F(c) à ces cellules. Des souris ayant reçu 2µg d'anticorps 679.1MC7 24 heures plus tôt sont injectées par voie intraveineuse avec 100 µCi (15 pmol) de dérivé de l'exemple 3. Les images sont réalisées avec une caméra Sopha Medical Gammatome 2 équipée avec un collimateur haute résolution de moyenne énergie, puis les animaux sont sacrifiés et la radioactivité présente dans le foie est déterminée à l'aide d'un compteur gamma. […] 100 µCi de dérivé de l'exemple 3 sont injectés à une souris ayant reçu quelques minutes plus tôt 1µg de conjugué anticorps CY34-679.1MC7 (anti-lyb8.2-anti-Histamine-Succinyl-Glycine). Les images sont enregistrées comme indiqué dans l'exemple précédent. […] Des cellules de tumeurs colorectales humaines (cellules LS 174, 3.10^6) sont injectées par voie sous cutanée à des souris nudes. […] Les souris reçoivent alors 2µg de conjugué anticorps F6-679.1MC7 (antiCEA-anti-Histamine-Succinyl-Glycine). Vingt quatre heures plus tard les souris reçoivent 6,7µCi (1pmol) de dérivé de l'exemple 3. Six heures plus tard les images sont enregistrées comme indiqué dans l'exemple précédent puis les animaux sacrifiés.

[2] = tested on: lymphocytes de souris BALB/c qui expriment l'antigène Lyb 8.2; conditions: 1 µg conjugate CY34-679.1MC7 a few minutes earlier; 100 µCi; 4 h after injection
Experimental: as §1

cellules hépatiques = conditions: 2 µg antibody 679.1MC7 24 h earlier; 100 µCi (15 pmol) i.v.; 4 h after injection
Experimental: as §1

^99mTc mercaptoacétyl-Glycyl-Glycyl-Glycyl-N-ε-(Histamine-Succinyl-Glycine)-Lysyl-D-Tyrosyl-N-ε-(Histamine-Succinyl-Glycine)-Lysinamide [Exemple 3]
pourcentage de sonde lié par rapport à sa quantité totale (cellules LS-174 T): ~70% | visibilité des tumeurs [1]: visibles dès trois heures après l'injection | localisation de la radioactivité ([1]; 6 h after injection): 9,8 ± 3,7 % / g de tumeur | rapport de marquage tumeur/plasma ([1]; 6 h after injection): 2.0 + 0.5 | % de la dose injectée localisée dans la rate [2]: 43 ± 3 % de la dose injectée | scintigraphie de la rate [2]: apparente en scintigraphie | % de la dose injectée localisée dans le foie (cellules hépatiques): 54 ± 6 % de la dose injectée | scintigraphie du foie (cellules hépatiques): apparent en scintigraphie
